Structures can show the parent of a compound that is named as a salt.

The results in this text go back to US8501166B2, “Pyrimidinyl indole compounds” (Hutchison Medipharma Limited, priority 2010, dated 2013).

Assay [1] has as its system Skov3-luc cells. Nature of the assay: Cell viability test, combination study, Skov3-luc. The format is cell-based. The settings on record: Homo sapiens, 72 h, Vincristine 0.25 μM alone, read-out: Ave. Inhibition rate. The protocol:
(§1) To evaluate biological activity of a compound in vitro, the cell viability test is applied, in which, IKKβ receptor plays an important role in cell survival and proliferation. Once the IKKβ pathway is blocked by inhibitors, a cell can go through apoptosis or death. The cell viability test provides information on cell survival after treatment with IKK inhibitors.
(§2) BxPC-3 cells (ATCC #CRL-1687; human pancreatic cancer cell line) are grown in Roswell Park Memorial Institute (RPMI) 1640 media (Gibco #A10491-01) supplemented with 10% fetal bovine serum (FBS) (Gibco #10099-141). Skov3-luc cells (ATCC, human ovarian carcinoma cell line) are grown in McCoy's 5a medium (Gibco#16600) supplemented with 10% FBS (Gibco#10099-141). For compound testing, BxPc-3 and Skov3-Luc cells are seeded at 2000 and 5000 cells/well respectively in 100 μL of corresponding media specified above for each cell line in 96-well plates 20 h prior to treatment. Cells are treated with a test compound at eight different concentrations in the presence of 0.5% DMSO for 72 h. Cell death in each well is determined by the addition of 20 μL of the One Solution Reagent (CELLTITER 96® AQueous One Solution Cell Proliferation Assay, Promega #G3580). After 2-4 h of incubation at 37° C., optical densities at 492 nm are measured with a microplate reader Inhibition of cell viability is determined by comparison to the control cells treated in the absence of a test compound.
For the combination study of the compound with other antitumor agents, BxPc-3 and Skov3-Luc cells are seeded at 2000 and 5000 cells/well respectively in 100 μL corresponding media specified above for each cell line in 96-well plates 20 h prior to the treatment. […] Cell death in each well is determined by the addition of 20 μL of the One Solution Reagent (CELLTITER 96® AQueous One Solution Cell Proliferation Assay, Promega #G3580). After 2-4 h of incubation at 37° C., optical densities at 492 nm are measured with a microplate reader Inhibition of cell viability is determined by comparison to the control cells treated in the absence of a test compound. […]

Assay [2] deals with BxPC-3 cells. Nature of the assay: Cell viability test, combination study, BxPC-3. The settings on record: for Ave. Inhibition rate: 72 h. The assay is classed as cell-based, human. The protocol: as §1, §2
For the combination study of the compound with other antitumor agents, BxPc-3 and Skov3-Luc cells are seeded at 2000 and 5000 cells/well respectively in 100 μL corresponding media specified above for each cell line in 96-well plates 20 h prior to the treatment. The cells are treated with the test compound at a number of concentrations for 30 minutes and then exposed to 5 ng/mL TNFα or 0.15-0.6 uM of VCR (vincristine sulfate) for an additional 72 hours. Cell death in each well is determined by the addition of 20 μL of the One Solution Reagent (CELLTITER 96® AQueous One Solution Cell Proliferation Assay, Promega #G3580). After 2-4 h of incubation at 37° C., optical densities at 492 nm are measured with a microplate reader Inhibition of cell viability is determined by comparison to the control cells treated in the absence of a test compound. For example, the results of the combination study with Example 1 are specially detailed in Table 2.

Assay [3] deals with SKOV-3x-FF-luci human ovarian cancer xenograft. Nature of the assay: Antitumor effect in SKOV-3x-FF-luci xenograft with vincristine (VCR). The assay is classed as in vivo, Balb/c nu/nu mice. The settings on record: VCR alone at suboptimal dose, tail vein, once a week. The protocol:
In order to expand the anti-tumor spectrum, more combination testing is explored. Based on in vitro synergistic effect of Example 1 and VCR, the compound is tested for its anti-tumor effects in SKOV-3x-FF-luci xenograft in the presence/absence of VCR. The SKOV-3x-FF-luci human ovarian cancer line (ATCC) is cultured in McCoy's 5a medium containing 10% FCS. Female Balb/c nu/nu mice (6-7 weeks old) are peritoneally injected with 0.2 mL of cell suspension containing 2×10^6 cells. Mice are divided into nine groups six days after cell implantation. The test compound is orally administered twice a day at 60 mg/kg for 20 consecutive days or at 90 mg/kg with a 2 days on and 5 days off dosing schedule. VCR at 1 or 0.3 mg/kg is administered via tail vein injection, once a week. In the combination group, VCR is given 1 h after the administration of the test compound. Mice from the control group are administered with the oral vehicle (10% Acacia at pH2.1) and intraperitoneally injected with saline. At the end of the treatment, all mice are euthanized with CO2 and tumors in the peritoneal cavity, diaphragmatic muscle, mesenterium, liver, spleen, and ovaries are harvested with surgery scissors and weighted. […] In the combination group, tumor growth is inhibited by 76% and 74%. Compared with monotherapy, statistical significance is found between combination and monotherapy.

Assay [4] deals with OVA-induced airway inflammation. Nature of the assay: Ovalbumin (OVA)-induced pulmonary inflammation in mice. The assay is classed as in vivo, Balb/c mice. The settings on record: dexamethasone 1 mg/kg (qd). The protocol:
A compound of the present invention is tested in an OVA-induced pulmonary inflammation model in mice essentially as described in a method reported in the literature (Muriel Pichavant, Sho Goya, Eckard Hamelmann, Erwin W. Gelfand, and Dale T. Umetsu. Animal Models of Airway Sensitization. Current Protocols in Immunology. (1999) 15.18.1-15.18.13). Briefly, female Balb/c mice weighing from 18 to 20 g are sensitized by introperitoneal injection of 100 μL of saline containing 20 μg of OVA and 2 mg of aluminum hydroxide on day 1 and 14. On days 28, 29 and 30, mice are challenged once each by aerosolizing 1% ovalbumin (OVA) in phosphate buffered saline (PBS) for 20 minutes with Buxco Mass Dosing System. […] On day 32, animals from each group are anesthetized with 1% of pentobarbital sodium. The thoracic and abdominal cavities are opened and plasma is collected from centrifuged specimens. The trachea is then dissected and transected. Through the insertion of an 18-gauge catheter into the trachea, the lungs are lavaged with a total of 1.5 mL of sterile PBS and then placed into a specimen container. Cell-free BAL supernatants are obtained by centrifugation of BAL fluids. All serum and BAL supernatants are stored at −80° C. until use. Differential cell counts are performed on cytospin preparations of BAL cells for cell counting and cytokine determination. After the collection of BAL supernatants, the lungs of recipient mice are removed en bloc and fixed by an intratracheal instillation of 10% buffered formalin (in PBS). Three to six paraffin sections are obtained from the perihilar regions of recipient lungs, stained with hematoxylin and eosin, and examined under light microscopy for pathological study.

With `CC[C@]1(O)C[C@H]2CN(CCc3c([nH]c4ccccc34)[C@@](C(=O)OC)(c3cc4c(cc3OC)N(C=O)[C@H]3[C@@](O)(C(=O)OC)[C@H](OC(C)=O)[C@]5(CC)C=CCN6CC[C@]43[C@@H]65)C2)C1` [Vincristine, vincristine sulfate, reference compound], the inhibition at 0.25 µM in assay [1] stood at 25%. For the same compound, the inhibition at 0.15 µM in assay [2] (Homo sapiens, BXPC-3, 72 h, Vincristine 0.15 μM alone, read-out: Ave. Inhibition rate) was determined as 5.73%. For the same compound, the “Ave. Inhibition rate” value in assay [2] (Vincristine 0.15 μM alone) is 9.48%. In addition, in assay [3], the tumor growth inhibition is on record as 38%.

In the case of `C[C@@H]1C[C@H]2[C@@H]3CCC4=CC(=O)C=C[C@]4(C)[C@@]3(F)[C@@H](O)C[C@]2(C)[C@@]1(O)C(=O)CO` [Dexamethasone, reference compound], the “decrease of IL-13 in BALF” value in assay [4] was 77%.

TNFα: in assay [2] (TNFα 5 ng/mL alone), the “Ave. Inhibition rate” value is given as 5.73%.
